Experimental data as given in ChEMBL document CHEMBL2434919, “Synthesis, cytotoxicity, and DNA-binding property of berberine derivatives” (Med Chem Res, 2013).
Calls of active or inactive are those of the source. No cut-off for these calls is given here.

How the values were obtained:
DNA [1] = experiment: Binding affinity to calf thymus DNA assessed as conformational changes in DNA morphology at […] after 2 hrs by circular dichroism analysis; assay type: nucleic-acid assay; conditions: Bos taurus
DNA [2] = experiment: Binding affinity to calf thymus DNA assessed as intercalation after 2 hrs by Stern-Volmer plot relative to control; assay type: nucleic-acid assay; conditions: Bos taurus
DNA [3] = experiment: Binding affinity to calf thymus DNA assessed as hypochromicity at 20 uM after 2 hrs by UV-Vis absorption titration analysis; assay type: nucleic-acid assay; conditions: Bos taurus
DNA [4] = experiment: Binding affinity to calf thymus DNA assessed as intercalation after 2 hrs by UV-Vis absorption titration analysis; assay type: nucleic-acid assay; conditions: Bos taurus
KB = experiment: Cytotoxicity against human KB cells after 48 hrs by MTT assay; assay type: functional, cell-based
Bel-7402 = experiment: Cytotoxicity against human Bel7402 cells after 48 hrs by MTT assay; assay type: functional, cell-based; conditions: Bel-7402, 48 h
BGC-823 = experiment: Cytotoxicity against human BGC823 cells after 48 hrs by MTT assay; assay type: functional, cell-based; conditions: BGC-823, 48 h
HL-60 = experiment: Cytotoxicity against human HL60 cells after 48 hrs by MTT assay; assay type: functional, cell-based; conditions: HL-60, 48 h
DNA [5] = experiment: Binding affinity to calf thymus DNA assessed as change in melting temperature at 100 uM by spectroscopic analysis; assay type: nucleic-acid assay; conditions: Bos taurus

| Compound | Activity (DNA [1]) | KSV (DNA [2]) | Activity (DNA [3]) [%] | K (DNA [4]) | ΔTm (DNA [5]) [°C] | IC50 (KB) [µM] | IC50 (Bel-7402) [µM] | IC50 (BGC-823) [µM] | IC50 (HL-60) [µM] |
| --- | --- | --- | --- | --- | --- | --- | --- | --- | --- |
| COc1ccc2cc3[n+](cc2c1O)CCc1cc2c(cc1-3)OCO2 [BERBERRUBINE CHLORIDE] |  |  |  |  |  | 6.92 | 34.3 | 7.66 | 11.4 |
| COc1ccc2cc3[n+](cc2c1OCCOCCOCCN1CCOCC1)CCc1cc2c(cc1-3)OCO2 | Active | 1.79 ×10⁵ /M | 25 | 3.45 ×10⁵ /M | 1.2 | 10 | 9.66 | 10.8 | 14.8 |
| COc1ccc2cc3[n+](cc2c1OC)CCc1cc2c(cc1-3)OCO2 [BERBERINE CHLORIDE] |  |  |  |  |  | 6.03 | 16.3 | 7.04 | 5.83 |
| COc1ccc2cc3[n+](cc2c1OCCN1CCCCC1)CCc1cc2c(cc1-3)OCO2 | Active | 7.09 ×10⁴ /M | 21 | 1.27 ×10⁸ /M | 2.2 | 17.1 | 27.5 | 10.2 | 6.51 |

Second part, led by results:

| Activity (DNA [1]) | KSV (DNA [2]) | Activity (DNA [3]) [%] | K (DNA [4]) | ΔTm (DNA [5]) [°C] | Compound | IC50 (KB) [µM] | IC50 (Bel-7402) [µM] | IC50 (BGC-823) [µM] | IC50 (HL-60) [µM] |
| --- | --- | --- | --- | --- | --- | --- | --- | --- | --- |
| Active | 1.82 ×10⁵ /M | 21 | 6.32 ×10⁶ /M | 1.7 | COc1ccc2cc3[n+](cc2c1OCCOCCN1CCOCC1)CCc1cc2c(cc1-3)OCO2 | 9.93 | 9.44 | 11.9 | 16.4 |
| Active | 1.27 ×10⁵ /M | 17 | 3.55 ×10⁸ /M | 1.4 | COc1ccc2cc3[n+](cc2c1OCCN1CCOCC1)CCc1cc2c(cc1-3)OCO2 | 5.46 | 11.6 | 2.82 | 2.71 |
| Active | 1.01 ×10⁵ /M | 21 | 1.86 ×10⁵ /M | 1.3 | COc1ccc2cc3[n+](cc2c1OCCOCCOCCN1CCCCC1)CCc1cc2c(cc1-3)OCO2 | 33.9 | 33.4 | 20.6 | 45.8 |
| Active | 8.01 ×10⁴ /M | 19 | 1.49 ×10⁶ /M | 1.5 | COc1ccc2cc3[n+](cc2c1OCCOCCN1CCCCC1)CCc1cc2c(cc1-3)OCO2 | 19.7 | 17.9 | 22.2 | 46.8 |
